PubChem BioAssay AID2060895 (Molecular Pharmacology Branch, DTP, NCI, 2025)

Test system: PDC 899932-113-R3-J6 complex spheroid viability
Assay: Anticancer human tumor 899932-113-R3-J6-PDC patient-derived melanoma cell line growth inhibition [RAS]
Conditions: for IC50: curve of first compound; for viability, T/C: stronger effect = lower value
Summary of the method: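 Agents were tested in combination matrices in half-log decrements from a top concentration at or near clinical Cmax (10 microM if undetermined). Targets were multi-cell spheroids of tumour lines plus HUVEC and MSC stromal cells.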

[1] = second compound 0.00316 µM, first compound 0.0316 µM
[2] = second compound 0.00316 µM, first compound 0.1 µM
[3] = second compound 0.01 µM, first compound 0.0316 µM
[4] = second compound 0.01 µM, first compound 0.1 µM
[5] = second compound 0.0316 µM, first compound 0.0316 µM
[6] = second compound 0.0316 µM, first compound 0.1 µM
[7] = second compound 0.1 µM, first compound 0.0316 µM
[8] = second compound 0.1 µM, first compound 0.1 µM
[9] = second compound 0.316 µM, first compound 0.0316 µM
[10] = second compound 0.316 µM, first compound 0.1 µM
[11] = second compound 1 µM, first compound 0.0316 µM
[12] = second compound 1 µM, first compound 0.1 µM
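Throughout, for viability, T/C: spheroids exposed to agents for seven days before readout; 100% = DMSO vehicle control wells.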

## CC(C)NCC(C(=O)N1CCN(c2ncnc3c2C(C)CC3O)CC1)c1ccc(Cl)cc1 (centres undefined) + C=CC(=O)N1CCN(c2nc(OCC3CCCN3C)nc3c(F)c(-c4nc(N)cc(C)c4C(F)(F)F)c(Cl)cc23)C(C)C1
Second compound 0.00316 µM
  IC50: 4.89 µM
Second compound 0.01 µM
  IC50: 5.2 µM
Second compound 0.0316 µM
  IC50: 5.3 µM
Second compound 0.1 µM
  IC50: 5.83 µM
Second compound 0.316 µM
  IC50: 5.98 µM
Second compound 1 µM
  IC50: 6.01 µM
[1]
  viability, T/C: 106%
[2]
  viability, T/C: 97.3%
Second compound 0.00316 µM, first compound 0.316 µM
  viability, T/C: 99.6%
Second compound 0.00316 µM, first compound 1 µM
  viability, T/C: 84.4%
Second compound 0.00316 µM, first compound 3.16 µM
  viability, T/C: 60.3%
Second compound 0.00316 µM, first compound 10 µM
  viability, T/C: 33%
[3]
  viability, T/C: 110%
[4]
  viability, T/C: 105%
Second compound 0.01 µM, first compound 0.316 µM
  viability, T/C: 102%
Second compound 0.01 µM, first compound 1 µM
  viability, T/C: 81.3%
Second compound 0.01 µM, first compound 3.16 µM
  viability, T/C: 60.9%
Second compound 0.01 µM, first compound 10 µM
  viability, T/C: 36.8%
[5]
  viability, T/C: 110%
[6]
  viability, T/C: 101%
Second compound 0.0316 µM, first compound 0.316 µM
  viability, T/C: 104%
Second compound 0.0316 µM, first compound 1 µM
  viability, T/C: 82.7%
Second compound 0.0316 µM, first compound 3.16 µM
  viability, T/C: 65.1%
Second compound 0.0316 µM, first compound 10 µM
  viability, T/C: 32.6%
[7]
  viability, T/C: 103%
[8]
  viability, T/C: 110%
Second compound 0.1 µM, first compound 0.316 µM
  viability, T/C: 99%
Second compound 0.1 µM, first compound 1 µM
  viability, T/C: 89%
Second compound 0.1 µM, first compound 3.16 µM
  viability, T/C: 58.9%
Second compound 0.1 µM, first compound 10 µM
  viability, T/C: 41.9%
[9]
  viability, T/C: 106%
[10]
  viability, T/C: 105%
Second compound 0.316 µM, first compound 0.316 µM
  viability, T/C: 96.3%
Second compound 0.316 µM, first compound 1 µM
  viability, T/C: 83.7%
Second compound 0.316 µM, first compound 3.16 µM
  viability, T/C: 72.8%
Second compound 0.316 µM, first compound 10 µM
  viability, T/C: 33.6%
[11]
  viability, T/C: 88.7%
[12]
  viability, T/C: 104%
Second compound 1 µM, first compound 0.316 µM
  viability, T/C: 105%
Second compound 1 µM, first compound 1 µM
  viability, T/C: 89.5%
Second compound 1 µM, first compound 3.16 µM
  viability, T/C: 73.7%
Second compound 1 µM, first compound 10 µM
  viability, T/C: 31.7%

## CC(C)n1nc(-c2ccc3oc(N)nc3c2)c2c(N)ncnc21 + C=CC(=O)N1CCN(c2nc(OCC3CCCN3C)nc3c(F)c(-c4nc(N)cc(C)c4C(F)(F)F)c(Cl)cc23)C(C)C1
Second compound 0.00316 µM
  IC50: 0.0907 µM
Second compound 0.01 µM
  IC50: > 0.1 µM
Second compound 0.0316 µM
  IC50: > 0.1 µM
Second compound 0.1 µM
  IC50: > 0.1 µM
Second compound 0.316 µM
  IC50: > 0.1 µM
Second compound 1 µM
  IC50: > 0.1 µM
Second compound 0.00316 µM, first compound 0.000316 µM
  viability, T/C: 109%
Second compound 0.00316 µM, first compound 0.001 µM
  viability, T/C: 105%
Second compound 0.00316 µM, first compound 0.00316 µM
  viability, T/C: 114%
Second compound 0.00316 µM, first compound 0.01 µM
  viability, T/C: 105%
[1]
  viability, T/C: 79.6%
[2]
  viability, T/C: 47.3%
Second compound 0.01 µM, first compound 0.000316 µM
  viability, T/C: 113%
Second compound 0.01 µM, first compound 0.001 µM
  viability, T/C: 116%
Second compound 0.01 µM, first compound 0.00316 µM
  viability, T/C: 112%
Second compound 0.01 µM, first compound 0.01 µM
  viability, T/C: 115%
[3]
  viability, T/C: 74.5%
[4]
  viability, T/C: 52.6%
Second compound 0.0316 µM, first compound 0.000316 µM
  viability, T/C: 113%
Second compound 0.0316 µM, first compound 0.001 µM
  viability, T/C: 111%
Second compound 0.0316 µM, first compound 0.00316 µM
  viability, T/C: 102%
Second compound 0.0316 µM, first compound 0.01 µM
  viability, T/C: 97.7%
[5]
  viability, T/C: 75.7%
[6]
  viability, T/C: 54.1%
Second compound 0.1 µM, first compound 0.000316 µM
  viability, T/C: 110%
Second compound 0.1 µM, first compound 0.001 µM
  viability, T/C: 121%
Second compound 0.1 µM, first compound 0.00316 µM
  viability, T/C: 106%
Second compound 0.1 µM, first compound 0.01 µM
  viability, T/C: 92.2%
[7]
  viability, T/C: 83.5%
[8]
  viability, T/C: 52.3%
Second compound 0.316 µM, first compound 0.000316 µM
  viability, T/C: 98.9%
Second compound 0.316 µM, first compound 0.001 µM
  viability, T/C: 104%
Second compound 0.316 µM, first compound 0.00316 µM
  viability, T/C: 111%
Second compound 0.316 µM, first compound 0.01 µM
  viability, T/C: 104%
[9]
  viability, T/C: 85.5%
[10]
  viability, T/C: 50%
Second compound 1 µM, first compound 0.000316 µM
  viability, T/C: 108%
Second compound 1 µM, first compound 0.001 µM
  viability, T/C: 108%
Second compound 1 µM, first compound 0.00316 µM
  viability, T/C: 109%
Second compound 1 µM, first compound 0.01 µM
  viability, T/C: 100%
[11]
  viability, T/C: 78.9%
[12]
  viability, T/C: 54.8%
